Here are results for 34 compounds from patent US7524860B2, “Antibacterial agents” (Pfizer Inc., priority 2004, dated 2009).

Values after ≈ are worked out from the molar mass of the structure shown.

One assay has as its system Neisseria gonorrhoeae, GC525 (NG-2888). The assay can be described thus: in-vitro antibacterial activity, microbroth dilution MIC susceptibility testing. It counts as cell-based. Also on record: unit: ug/mL. To be noted: Neisseria gonorrhoeae, microbroth dilution in gonococcal broth, 20-24 hours at 35 C, lowest concentration preventing visible growth, read-out: MIC. The method in brief:
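Broth microdilution in gonococcal broth, inoculum ~5×10^5 cfu/mL, 20-24 h at 35 C in humidified CO2; compounds from 2 mg/mL DMSO stocks over 64-0.06 and 1-0.001 ug/mL two-fold series. MIC is the lowest concentration preventing visible growth, read visually; duplicates differing one well give the lower value, two wells the middle value.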
Background: Broth dilution looks for growth in wells or tubes with falling amounts of substance.
By MIC is commonly meant the lowest concentration found to suppress growth. For the compound `CCNC(=O)Nc1nc2cc(-c3cccnc3)cc(C(=O)NCc3cnccc3C(F)(F)F)n2n1` [Example 87, 2-(3-Ethyl-ureido)-7-pyridin-3-yl-[1,2,4]triazolo[1,5-a]pyridine-5-carboxylic acid(4-trifluoromethyl-pyridin-3-ylmethyl)-amide], the minimal inhibitory concentration (MIC) is 8 µg/mL (≈ 16.5 µM).
Same read-out and setting: the value for `CCNC(=O)Nc1nc2cc(-c3cccnc3)cc(C(=O)N(CC)Cc3ccncc3)n2n1` [Example 88, 2-(3-Ethyl-ureido)-7-pyridin-3-yl-[1,2,4]triazolo[1,5-a]pyridine-5-carboxylic acidethyl-pyridin-4-ylmethyl-amide] was 8 µg/mL (≈ 18 µM).
The same measure, in the same setting: the value for `CCNC(=O)Nc1nc2cc(-c3cccnc3)cc(C(=O)N(C)Cc3ncccc3C)n2n1` [Example 89, 2-(3-Ethyl-ureido)-7-pyridin-3-yl-[1,2,4]triazolo[1,5-a]pyridine-5-carboxylic acid methyl-(3-methyl-pyridin-2-yl-methyl)-amide] was 8 µg/mL (≈ 18 µM); that for `CCNC(=O)Nc1nc2cc(-c3cccnc3)cc(C(=O)N(C)C(C)c3ccccn3)n2n1` (stereo not shown) [Example 90, 2-(3-Ethyl-ureido)-7-pyridin-3-yl-[1,2,4]triazolo[1,5-a]pyridine-5-carboxylic acidmethyl-(1-pyridin-2-yl-ethyl)-amide] was over 64 µg/mL.
Still for that read-out and setting: the value for `CCNC(=O)Nc1nc2cc(-c3cccnc3)cc(C(=O)NCc3cccnc3)n2n1` [Example 91, 2-(3-Ethyl-ureido)-7-pyridin-3-yl-[1,2,4]triazolo[1,5-a]pyridine-5-carboxylic acid(pyridin-3-ylmethyl)-amide] was 16 µg/mL (≈ 38.4 µM).
Consider `CCNC(=O)Nc1nc2cc(-c3cccnc3)cc(C(=O)N(Cc3ccncc3)CC3CCCO3)n2n1` (stereo not shown) [Example 92, 2-(3-Ethyl-ureido)-7-pyridin-3-yl-[1,2,4]triazolo[1,5-a]pyridine-5-carboxylic acidpyridin-4-ylmethyl-(tetrahydro-furan-2-ylmethyl)-amide], for which the MIC came to 8 µg/mL (≈ 16 µM).
Same read-out and setting: the value for `CCNC(=O)Nc1nc2cc(-c3cccnc3)cc(C(=O)NC(C)c3ccncc3)n2n1` (stereo not shown) [Example 93, 2-(3-Ethyl-ureido)-7-pyridin-3-yl-[1,2,4]triazolo[1,5-a]pyridine-5-carboxylic acid (1-pyridin-4-yl-ethyl)-amide] was 2 µg/mL (≈ 4.65 µM); that for `CCNC(=O)Nc1nc2cc(-c3ccncc3Cl)cc(C(=O)NCC)n2n1` [Example 95, 7-(3-Chloro-pyridin-4-yl)-2-(3-ethyl-ureido)-[1,2,4]triazolo[1,5-a]pyridine-5-carboxylic acid ethylamide] was 32 µg/mL (≈ 82.5 µM).
Still for that read-out and setting: the value for `CCNC(=O)Nc1nc2cc(-c3ccc(OC)nc3)cc(C(=O)NCC)n2n1` [Example 96, 2-(3-Ethyl-ureido)-7-(6-methoxy-pyridin-3-yl)-[1,2,4]triazolo[1,5-a]pyridine-5-carboxylic acidethylamide] was 2 µg/mL (≈ 5.22 µM).
The same measure, in the same setting: the value for `CCNC(=O)Nc1nc2cc(-c3cnc(OC)nc3OC)cc(C(=O)NCC)n2n1` [Example 98, 7-(2,4-Dimethoxy-pyrimidin-5-yl)-2-(3-ethyl-ureido)-[1,2,4]triazolo[1,5-a]pyridine-5-carboxylic acid ethylamide] was 2 µg/mL (≈ 4.83 µM).
For the compound `CCNC(=O)Nc1nc2cc(-c3cccc(C(F)(F)F)c3)cc(C(=O)NCC)n2n1` [Example 99, 2-(3-Ethyl-ureido)-7-(3-trifluoromethyl-phenyl)-[1,2,4]triazolo[1,5-a]pyridine-5-carboxylic acid ethylamide], the MIC was determined as 8 µg/mL (≈ 19 µM).
On the same count and under the same terms, for `CCNC(=O)Nc1nc2cc(-c3ccc(OC)cc3OC)cc(C(=O)NCC)n2n1` [Example 102, 7-(2,4-Dimethoxy-phenyl)-2-(3-ethyl-ureido)-[1,2,4]triazolo[1,5-a]pyridine-5-carboxylic acid ethylamide] the value was over 64 µg/mL; for `CCNC(=O)Nc1nc2cc(-c3cc(C)c(OC)c(C)c3)cc(C(=O)NCC)n2n1` [Example 103, 2-(3-Ethyl-ureido)-7-(4-methoxy-3,5-dimethyl-phenyl)-[1,2,4]triazolo[1,5-a]pyridine-5-carboxylic acid ethylamide], over 64 µg/mL; for `CCNC(=O)Nc1nc2cc(-c3cccnc3)cc(C(=O)NCCN(C)C)n2n1` [Example 105, 2-(3-Ethyl-ureido)-7-pyridin-3-yl-[1,2,4]triazolo[1,5-a]pyridine-5-carboxylic acid (2-dimethylamino-ethyl)-amide], 16 µg/mL (≈ 40.4 µM).
Same read-out and setting: for `CCNC(=O)Nc1nc2cc(-c3cccnc3)cc(C(=O)NCc3ccc(OC)c(OC)c3)n2n1` [Example 106, 2-(3-Ethyl-ureido)-7-pyridin-3-yl-[1,2,4]triazolo[1,5-a]pyridine-5-carboxylic acid 3,4-dimethoxy-benzylamide] the value was over 64 µg/mL.
The same measure, in the same setting: for `CCNC(=O)Nc1nc2cc(-c3cccnc3)cc(C(=O)NCCCN)n2n1` [Example 107, 2-(3-Ethyl-ureido)-7-pyridin-3-yl-[1,2,4]triazolo[1,5-a]pyridine-5-carboxylic acid (3-amino-propyl)-amide] the value was over 64 µg/mL; for `CCCC(=O)c1cc(-c2cccnc2)cc2nc(NC(=O)NCC)nn12` [Example 108, 1-(5-Butyryl-7-pyridin-3-yl-[1,2,4]triazolo[1,5-a]pyridine-2-yl)-3-ethyl-urea], 2 µg/mL (≈ 5.68 µM); for `CCNC(=O)Nc1nc2cc(-c3cccnc3)cc(C(=O)C3CC3)n2n1` [Example 109, 1-(5-Cyclopropanecarbonyl-7-pyridin-3-yl-[1,2,4]triazolo[1,5-a]pyridine-2-yl)-3-ethyl-urea], 2 µg/mL (≈ 5.71 µM).
In the case of `CCNC(=O)Nc1nc2cc(-c3cccnc3)cc(C(=O)Cc3ccccc3)n2n1` [Example 110, 1-Ethyl-3-(5-phenylacetyl-7-pyridin-3-yl-[1,2,4]triazolo[1,5-a]pyridine-2-yl)-urea], the MIC came to 4 µg/mL (≈ 9.99 µM).
On the same count and under the same terms, for `CCNC(=O)Nc1nc2cc(-c3cccnc3)cc(C(=O)c3ccccc3)n2n1` [Example 111, 1-(5-Benzoyl-7-pyridin-3-yl-[1,2,4]triazolo[1,5-a]pyridine-2-yl)-3-ethyl-urea] the value was 8 µg/mL (≈ 20.7 µM).
Same read-out and setting: for `CCCC(=NOC)c1cc(-c2cccnc2)cc2nc(NC(=O)NCC)nn12` [Example 112, 1-Ethyl-3-[5-(1-methoxyimino-butyl)-7-pyridin-3-yl-[1,2,4]triazolo[1,5-a]pyridine-2-yl]-urea] the value was 8 µg/mL (≈ 21 µM); for `CCNC(=O)Nc1cn2c(CN3CCCC3)cc(-c3cccnc3)cc2n1` [Example 113, 1-Ethyl-3-(7-pyridin-3-yl-5-pyrrolidin-1-ylmethyl-imidazo[1,2-a]pyridin-2-yl)-urea], 64 µg/mL (≈ 176 µM).
Same read-out and setting: the value for `CCNC(=O)Nc1nc2cc(N3CCCC3)cc(C(=O)N3CCCC3)n2n1` [Example 121, 1-Ethyl-3-[5-(pyrrolidine-1-carbonyl)-7-pyrrolidin-1-yl-[1,2,4]triazolo[1,5-a]pyridin-2-yl]-urea] was 64 µg/mL (≈ 172 µM); that for `CCNC(=O)Nc1nc2cc(-c3cccnc3)cc(-c3nc(CC)cs3)n2n1` [Example 122, 1-Ethyl-3-[5-(4-ethyl-thiazol-2-yl)-7-pyridin-3-yl-[1,2,4]triazolo[1,5-a]pyridin-2-yl]-urea] was 0.06 µg/mL (≈ 0.152 µM).
In the case of `CCNC(=O)Nc1nc2cc(-c3cccnc3)cc(-c3cnc(CC)s3)n2n1` [Example 123, 1-Ethyl-3-[5-(2-ethyl-thiazol-5-yl)-7-pyridin-3-yl-[1,2,4]triazolo[1,5-a]pyridin-2-yl]-urea], the MIC was over 64 µg/mL.
On the same count and under the same terms, for `CCNC(=O)Nc1nc2cc(-c3cccnc3)cc(-c3cncs3)n2n1` [Example 125, 1-Ethyl-3-[5-(thiazol-5-yl)-7-pyridin-3-yl-[1,2,4]triazolo[1,5-a]pyridin-2-yl]-urea] the value was 0.06 µg/mL (≈ 0.164 µM); for `CCNC(=O)Nc1nc2cc(-c3cccnc3)cc(-c3ccccn3)n2n1` [Example 127, 1-Ethyl-3-(5-pyridin-2-yl-7-pyridin-3-yl-[1,2,4]triazolo[1,5-a]pyridin-2-yl)-urea], 32 µg/mL (≈ 89 µM).
As to `CCNC(=O)Nc1nc2cc(-c3cccnc3)cc(-c3ncccn3)n2n1` [Example 128, 1-Ethyl-3-(7-pyridin-3-yl-5-pyrimidin-2-yl-[1,2,4]triazolo[1,5-a]pyridin-2-yl)-urea], the MIC was over 64 µg/mL.
On the same count and under the same terms, the value for `CCNC(=O)Nc1nc2cc(-c3cccnc3)cc(-c3cnc(C)o3)n2n1` [Example 129, N-Ethyl-N′-[5-(2-methyl-1,3-oxazol-5-yl)-7-pyridin-3-yl[1,2,4]triazolo[1,5-a]pyridin-2-yl]urea] was 1 µg/mL (≈ 2.75 µM).

Still in this assay, the particulars now being: microbroth dilution in gonococcal broth, 20-24 hours at 35 C, lowest concentration preventing visible growth.
Compound `CCNC(=O)Nc1nc2cc(-c3cccnc3)cc(C(=O)N(CC)CC)n2n1` [Example 104, 2-(3-Ethyl-ureido)-7-pyridin-3-yl-[1,2,4]triazolo[1,5-a]pyridine-5-carboxylic acid diethylamide] registered an MIC of 64.0 µg/mL (≈ 168 µM).
Take `CCOC(=O)c1cc(-c2cnc(N(C)C)nc2)cc2nc(NC(=O)NC(C)C)cn12` [Example 116, 7-(2-Dimethylamino-pyrimidin-5-yl)-2-(3-isopropyl-ureido)-imidazo[1,2-a]pyridine-5-carboxylic acid ethyl ester]: the MIC is over 64.0 µg/mL.
Turning to `CCNC(=O)Nc1cn2c(C(=O)OCC)cc(-c3ccc(OC)cc3)cc2n1` [Example 118, 2-(3-Ethyl-ureido)-7-(4-methoxy-phenyl)-imidazo[1,2-a]pyridine-5-carboxylic acid ethyl ester], the MIC was over 64.0 µg/mL.
The same measure, in the same setting: for `CCNC(=O)Nc1nc2cc(-c3cccnc3)cc(-c3cnc(CC)s3)n2n1` [Example 124, 1-ethyl-3-[5-(2-ethyl-thiazol-5-yl)-7-pyridin-3-yl-[1,2,4]triazolo[1,5-a]pyridin-2-yl]-urea] the value was 64.0 µg/mL (≈ 163 µM); for `CCNC(=O)Nc1nc2cc(-c3cccnc3)cc(-c3cccnc3)n2n1` [Example 126, 1-(5,7-Di-pyridin-3-yl-[2,4]triazolo[1,5-a]pyridin-2-yl)-3-ethyl-urea], 16.0 µg/mL (≈ 44.5 µM).
